The values that follow come from US10597380B2, “Pyridazinone-based broad spectrum anti-influenza inhibitors” (Hoffmann-La Roche Inc., priority 2017, dated 2020).

SMILES strings stand for the structures.

This assay has as its system Influenza A/WSN/33-Luciferase virus. Briefly: microbe, parasite or virus in culture. Conditions: A549, 72 h, luciferase signal three days later, read-out: IC50 antiviral activity (Luciferase reporter assay). Format: cell-based.
In general, IC50 refers to the concentration that inhibits the measured activity by half. Turning to `O=c1c(Nc2nn(-c3ccc(OC(F)(F)F)cc3)c(=O)c3c2CCC3)cncn1CCN1CCCC1` [Example 52, 1-[[6-oxo-1-(2-pyrrolidin-1-ylethyl)pyrimidin-5-yl]amino]-3-[4-(trifluoromethoxy)phenyl]-6,7-dihydro-5H-cyclopenta[d]pyridazin-4-one], the IC50 turned out to be 62 nM.
Regarding `O=C(O)COCCn1cccc(Nc2nn(-c3ccc(OC(F)(F)F)cc3)c(=O)c3c2CCC3)c1=O` [Example 119, 2-[2-[2-oxo-3-[[4-oxo-3-[4-(trifluoromethoxy)phenyl]-6,7-dihydro-5H-cyclopenta[d]pyridazin-1-yl]amino]-1-pyridyl]ethoxy]acetic acid], the IC50 is 3760 nM.
Turning to `CNC(=O)c1cc(Nc2nn(-c3ccc(OC(F)(F)F)cc3)c(=O)c3c2CCCC3)c(=O)n(C)c1` [Example 174, N,1-Dimethyl-6-oxo-5-[[4-oxo-3-[4-(trifluoromethoxy)phenyl]-5,6,7,8-tetrahydrophthalazin-1-yl]amino]pyridine-3-carboxamide], the IC50 was 14600 nM.
As to `Cn1cccc(Nc2nn(-c3ccc(OC(F)(F)F)cc3)c(=O)c3ccc(O)cc23)c1=O` [Example 126, 6-Hydroxy-4-[(1-methyl-2-oxo-3-pyridyl)amino]-2-[4-(trifluoromethoxy)phenyl]phthalazin-1-one], the IC50 is 191 nM.
Then `CN(C)C(=O)Cn1cccc(Nc2nn(-c3ccc(OC(F)(F)F)cc3)c(=O)c3ccccc23)c1=O` [Example 89, N,N-dimethyl-2-[2-oxo-3-[[4-oxo-3-[4-(trifluoromethoxy)phenyl]phthalazin-1-yl]amino]-1-pyridyl]acetamide], with 38 nM.
Turning to `COC(=O)[C@@H]1CCCN1CCn1cccc(Nc2nn(-c3ccc(OC(F)(F)F)cc3)c(=O)c3ccccc23)c1=O` [Example 79, methyl (2S)-1-[2-[2-oxo-3-[[4-oxo-3-[4-(trifluoromethoxy)phenyl]phthalazin-1-yl]amino]-1-pyridyl]ethyl]pyrrolidine-2-carboxylate], the IC50 amounted to 32 nM.
Then `Cn1cccc(Nc2nn(-c3ccc(OC(F)F)cc3)c(=O)c3c2CCC3)c1=O` [Example 59, 3-[4-(difluoromethoxy)phenyl]-1-[(1-methyl-2-oxo-3-pyridyl)amino]-6,7-dihydro-5H-cyclopenta[d]pyridazin-4-one], with 137 nM; and `CCN(CC)CCn1cncc(Nc2nn(-c3ccc(OC(F)(F)F)cc3)c(=O)c3c2CCC3)c1=O` [Example 51, 1-[[1-[2-(diethylamino)ethyl]-6-oxo-pyrimidin-5-yl]amino]-3-[4-(trifluoromethoxy)phenyl]-6,7-dihydro-5H-cyclopenta[d]pyridazin-4-one], with 44 nM; and `Cn1cccc(Nc2nn(-c3ccc(OC(F)(F)F)cc3)c(=O)c3cc(CN)ccc23)c1=O` [Example 143, 7-(Aminomethyl)-4-[(1-methyl-2-oxo-3-pyridyl)amino]-2-[4-(trifluoromethoxy)phenyl]phthalazin-1-one], with 271 nM.
The same measure for `Cc1cc(OC(F)(F)F)ccc1-n1nc(Nc2cccn(C)c2=O)c2ccccc2c1=O` [Example 7, 4-[(1-methyl-2-oxo-3-pyridyl)amino]-2-[2-methyl-4-(trifluoromethoxy)phenyl]phthalazin-1-one]: 4340 nM; for `CCCn1cncc(Nc2nn(-c3ccc(OC(F)(F)F)cc3)c(=O)c3c2CCN(C(C)=O)C3)c1=O` [Example 86, 6-acetyl-1-[(6-oxo-1-propyl-pyrimidin-5-yl)amino]-3-[4-(trifluoromethoxy)phenyl]-7,8-dihydro-5H-pyrido[3,4-d]pyridazin-4-one]: 34 nM; for `O=C(Cn1cccc(Nc2nn(-c3ccc(OC(F)(F)F)cc3)c(=O)c3c2CCC3)c1=O)N1CCNCC1` [Example 167, 1-[[2-Oxo-1-(2-oxo-2-piperazin-1-yl-ethyl)-3-pyridyl]amino]-3-[4-(trifluoromethoxy)phenyl]-6,7-dihydro-5H-cyclopenta[d]pyridazin-4-one]: 148 nM.
Take `CS(=O)(=O)CCn1cccc(Nc2nn(-c3ccc(OC(F)(F)F)cc3)c(=O)c3ccccc23)c1=O` [Example 72, 4-[[1-(2-methylsulfonylethyl)-2-oxo-3-pyridyl]amino]-2-[4-(trifluoromethoxy)phenyl]phthalazin-1-one]: the IC50 is 24 nM.
Take `CN(CCn1cccc(Nc2nn(-c3ccc(OC(F)(F)F)cc3)c(=O)c3ccccc23)c1=O)CC(=O)O` [Example 113, 2-[methyl-[2-[2-oxo-3-[[4-oxo-3-[4-(trifluoromethoxy)phenyl]phthalazin-1-yl]amino]-1-pyridyl]ethyl]amino]acetic acid]: the IC50 came out at 161 nM.
With `CN(C)C(=O)COCCn1cccc(Nc2nn(-c3ccc(OC(F)(F)F)cc3)c(=O)c3c2CCC3)c1=O` [Example 108, N,N-dimethyl-2-[2-[2-oxo-3-[[4-oxo-3-[4-(trifluoromethoxy)phenyl]-6,7-dihydro-5H-cyclopenta[d]pyridazin-1-yl]amino]-1-pyridyl]ethoxy]acetamide], the IC50 turned out to be 29 nM.
The same measure for `CC(C)(Cn1cccc(Nc2nn(-c3ccc(OC(F)(F)F)cc3)c(=O)c3ccccc23)c1=O)C(=O)O` [Example 111, 2,2-dimethyl-3-[2-oxo-3-[[4-oxo-3-[4-(trifluoromethoxy)phenyl]phthalazin-1-yl]amino]-1-pyridyl]propanoic acid]: 1510 nM; for `Cc1ccc(Nc2nn(-c3ccc(OC(F)(F)F)cc3)c(=O)c3ccccc23)c(=O)[nH]1` [Example 68, 4-[(6-methyl-2-oxo-1H-pyridin-3-yl)amino]-2-[4-(trifluoromethoxy)phenyl]phthalazin-1-one]: 1710 nM; for `O=c1c(Nc2nn(-c3ccc(OC(F)(F)F)cc3)c(=O)c3c2CCC3)cccn1CC1CCCN1` (stereo not shown) [Example 131, 1-[[2-Oxo-1-(pyrrolidin-2-ylmethyl)-3-pyridyl]amino]-3-[4-(trifluoromethoxy)phenyl]-6,7-dihydro-5H-cyclopenta[d]pyridazin-4-one]: 30 nM.
`Cn1cccc(Nc2nn(-c3ccc(OC(F)(F)F)cc3)c(=O)c3cc(C(N)=O)ccc23)c1=O` [Example 139, 1-[(1-Methyl-2-oxo-3-pyridyl)amino]-4-oxo-3-[4-(trifluoromethoxy)phenyl]phthalazine-6-carboxamide]: the IC50 amounted to 62 nM.
For `CNC(=O)Cn1cccc(Nc2nn(-c3ccc(OC(F)(F)F)cc3)c(=O)c3c2CCCC3)c1=O` [Example 104, N-methyl-2-[2-oxo-3-[[4-oxo-3-[4-(trifluoromethoxy)phenyl]-5,6,7,8-tetrahydrophthalazin-1-yl]amino]-1-pyridyl]acetamide], the IC50 was determined as 39 nM.
As to `COCCOc1cccc2c(=O)n(-c3ccc(OC(F)(F)F)cc3)nc(Nc3cccn(C)c3=O)c12` [Example 138, 5-(2-Methoxyethoxy)-4-[(1-methyl-2-oxo-3-pyridyl)amino]-2-[4-(trifluoromethoxy)phenyl]phthalazin-1-one], the IC50 came to 110 nM.
The same measure for `NS(=O)(=O)CCCn1cccc(Nc2nn(-c3ccc(OC(F)(F)F)cc3)c(=O)c3ccccc23)c1=O` [Example 74, 3-[2-oxo-3-[[4-oxo-3-[4-(trifluoromethoxy)phenyl]phthalazin-1-yl]amino]-1-pyridyl]propane-1-sulfonamide]: 34 nM.
In the case of `COC(=O)CCCn1cccc(Nc2nn(-c3ccc(OC(F)(F)F)cc3)c(=O)c3ccccc23)c1=O` [Example 73, methyl 4-[2-oxo-3-[[4-oxo-3-[4-(trifluoromethoxy)phenyl]phthalazin-1-yl]amino]-1-pyridyl]butanoate], the IC50 amounted to 49 nM.
As to `O=c1c(Nc2nn(-c3ccc(OC(F)(F)F)cc3)c(=O)c3ccccc23)cccn1CCN1CC(O)(C(F)(F)F)C1` [Example 77, 4-[[1-[2-[3-hydroxy-3-(trifluoromethyl)azetidin-1-yl]ethyl]-2-oxo-3-pyridyl]amino]-2-[4-(trifluoromethoxy)phenyl]phthalazin-1-one], the IC50 worked out at 108 nM.
Turning to `CCOC(=O)COCCn1cccc(Nc2nn(-c3ccc(OC(F)(F)F)cc3)c(=O)c3c2CCC3)c1=O` [Example 39, ethyl 2-[2-[2-oxo-3-[[4-oxo-3-[4-(trifluoromethoxy)phenyl]-6,7-dihydro-5H-cyclopenta[d]pyridazin-1-yl]amino]-1-pyridyl]ethoxy]acetate], the IC50 came to 230 nM.
In the case of `COCCCNC(=O)Cn1cccc(Nc2nn(-c3ccc(OC(F)(F)F)cc3)c(=O)c3ccccc23)c1=O` [Example 94, N-(3-methoxypropyl)-2-[2-oxo-3-[[4-oxo-3-[4-(trifluoromethoxy)phenyl]phthalazin-1-yl]amino]-1-pyridyl]acetamide], the IC50 was found to be 45 nM.
Regarding `O=c1c(Nc2nn(-c3ccc(OC(F)(F)F)cc3)c(=O)c3ccccc23)cccn1CCN1CCC(O)C1` (stereo not shown) [Example 78, 4-[[1-[2-(3-hydroxypyrrolidin-1-yl)ethyl]-2-oxo-3-pyridyl]amino]-2-[4-(trifluoromethoxy)phenyl]phthalazin-1-one], the IC50 came to 31 nM.
Consider `CCN1CCc2c(Nc3cccn(C)c3=O)nn(-c3ccc(OC(F)(F)F)cc3)c(=O)c2C1` [Example 158, 6-Ethyl-1-[(1-methyl-2-oxo-3-pyridyl)amino]-3-[4-(trifluoromethoxy)phenyl]-7,8-dihydro-5H-pyrido[3,4-d]pyridazin-4-one], for which the IC50 was 105 nM.
In the case of `CCOC(=O)COCCn1cccc(Nc2nn(-c3ccc(OC(F)(F)F)cc3)c(=O)c3ccccc23)c1=O` [Example 5, ethyl 2-[2-[2-oxo-3-[[4-oxo-3-[4-(trifluoromethoxy)phenyl]phthalazin-1-yl]amino]-1-pyridyl]ethoxy]acetate], the IC50 came to 485 nM.
The same measure for `C=Cc1ccc2c(=O)n(-c3ccc(OC(F)(F)F)cc3)nc(Nc3cccn(C)c3=O)c2c1` [Example 83, 4-[(1-methyl-2-oxo-3-pyridyl)amino]-2-[4-(trifluoromethoxy)phenyl]-6-vinyl-phthalazin-1-one]: 1490 nM.
With `O=c1c(Nc2nn(-c3ccc(OC(F)(F)F)cc3)c(=O)c3c2CCC3)cccn1CCn1ccnc1` [Example 40, 1-[[1-(2-imidazol-1-ylethyl)-2-oxo-3-pyridyl]amino]-3-[4-(trifluoromethoxy)phenyl]-6,7-dihydro-5H-cyclopenta[d]pyridazin-4-one], the IC50 was found to be 100 nM.
